Results reported in patent publication US8940756B2, “Dihydronaphthyridines and related compounds useful as kinase inhibitors for the treatment of proliferative diseases” (Deciphera Pharmaceuticals, Inc., priority 2012, dated 2015).

Experiments:
[1] = molecular target: T1, c-KIT kinase (Seq ID no. 1) (Homo sapiens, UniProt P10721); experiment: c-KIT Kinase Assay (pyruvate kinase/lactate dehydrogenase coupled); assay type: biochemical; details: enzymatic assay, ATP 200 μM; read-out: KIT (wt)
T1 construct: GST (N); TEV cleavage site (N); purchased deCODE Biostructures
Protocol: In this assay, the oxidation of NADH (measured by decrease in absorbance at 340 nm) was continuously monitored spectrophotometrically. […] The absorption at 340 nm was monitored continuously for 2 hours at 30° C. on Synergy 2 (BioTeK). The reaction rate was calculated using the 0 to 1 h time frame. Percent inhibition was obtained by comparison of reaction rate with that of a control (i.e. with no test compound). IC50 values were calculated from a series of percent inhibition values determined at a range of inhibitor concentrations using software routines as implemented in the GraphPad Prism software package. The protein construct was prepared by deCODE Biostructures using procedures known in the art. The construct contains […] of cKit, an N-terminal tag, a GST-fusion sequence and a TEV cleavage site.

[2] = molecular target: T2, c-KIT V654A kinase (Seq ID no. 2) (Homo sapiens, UniProt P10721, V654A); experiment: c-KIT V654A Kinase Assay; assay type: biochemical; details: enzymatic assay, ATP 200 μM
T2 construct: V654A c-Kit (residues T544-V976 with N-terminal GST fusion, 47 nM); purchased deCODE Biostructures
Protocol: (§1) In this assay, the oxidation of NADH (measured by decrease in absorbance at 340 nm) was continuously monitored spectrophotometrically. […] The inhibition reaction was started by mixing serial diluted test compound with the above reaction mixture. The absorption at 340 nm was monitored continuously for 6 hours at 30° C. on Synergy 2 plate reader (BioTech).
The protein construct was prepared by deCODE Biostructures using procedures known in the art. The construct contains residues T544-V976 of cKit, an N-terminal tag, a GST-fusion sequence and a TEV cleavage site. This construct is identical to Seq ID no.

[3] = molecular target: T3, c-KIT D816H kinase (Seq ID no. 3) (Homo sapiens, UniProt P10721, D816H); experiment: c-KIT D816H Kinase Assay; assay type: biochemical; details: enzymatic assay, ATP 200 μM
T3 construct: GST (N); TEV cleavage site (N); purchased deCODE Biostructures
Protocol: (§2) In this assay, the oxidation of NADH (measured by decrease in absorbance at 340 nm) was continuously monitored spectrophotometrically. […] The inhibition reaction was started by mixing serial diluted test compound with the above reaction mixture. The absorption at 340 nm was monitored continuously for 6 hours at 30° C. on Synergy 2 plate reader (BioTech). […] The protein construct was prepared by deCODE Biostructures using procedures known in the art. The construct contains […] of cKit, an N-terminal tag, a GST-fusion sequence and a TEV cleavage site. This construct is identical to Seq ID no. 1 except for the D816H mutation.

[4] = molecular target: T4, c-KIT D816V kinase (Seq ID no. 4) (Homo sapiens, UniProt P10721, D816V); experiment: c-KIT D816V kinase Assay; assay type: biochemical; details: enzymatic assay, ATP 200 uM
T4 construct: D816V c-KIT (residues T544-V976 with N-terminal GST fusion, 16 nM); purchased deCODE Biostructures
Protocol: as §1, with “5” for “6”
The protein construct was prepared by deCODE Biostructures using procedures known in the art. The construct contains residues T544-V976 of cKit, an N-terminal tag, a GST-fusion sequence and a TEV cleavage site. This construct is identical to Seq ID no. 1 except for the D816V mutation.

[5] = molecular target: T5, c-KIT T670I kinase (Seq ID no. 6) (Homo sapiens, UniProt P10721, T670I); experiment: c-KIT T670I Kinase Assay; assay type: biochemical; details: enzymatic assay, ATP 200 uM
T5 construct: GST (N); TEV cleavage site (N); purchased deCODE Biostructures
Protocol: as §2, with “5” for “6”, “no.” for “no. 1 except for the D816H mutation.”

GIST T1 cells = experiment: GIST T1 Cell Proliferation Assay; assay type: cell-based; details: Homo sapiens, GISTT1, 72 h, resazurin, 68 hours + 4 hours
Protocol: (§3) GIST48, GIST430, and GIST882 cells were obtained from J. Fletcher (Brigham and Women's Hospital, Boston, Mass.). GIST T1 cells were obtained from B. Rubin (Cleveland Clinic, Cleveland, Ohio) and Professor Takahiro Taguchi (Kochi Medical School, Nankoku, Kochi, Japan). Briefly, GIST48 and GIST 882 cells were grown in RPMI 1640 medium supplemented with 15% characterized fetal bovine serum (Invitrogen, Carlsbad, Calif.), 1 unit/mL penicillin G, 1 μg/ml streptomycin, and 0.29 mg/mL L-glutamine at 37° C., 5% CO2, and 95% humidity. GIST430 cells were grown in Ham's F10 medium supplemented with 15% characterized fetal bovine serum (Invitrogen, Carlsbad, Calif.), 30 mg/L bovine pituitary extract (BD Biosciences, San Jose, Calif.), 0.5% Mito+ serum extender (BD Biosciences, San Jose, Calif.), 1 unit/mL penicillin G, 1 μg/ml streptomycin, and 0.29 mg/mL L-glutamine at 37° C., 5% CO2, 95% humidity. GIST T1 cells were grown in DMEM medium supplemented with 10% characterized fetal bovine serum (Invitrogen, Carlsbad, Calif.), 1 unit/mL penicillin G, 1 ng/ml streptomycin, and 0.29 mg/mL L-glutamine at 37° C., 5% CO2, and 95% humidity.
A serial dilution of test compound was dispensed into a 384-well black clear bottom plate (Corning, Corning, N.Y.). […] Plates were read on a Synergy2 reader (Biotek, Winooski, Vt.) using an excitation of 540 nm and an emission of 600 nm.

[6] = molecular target: Phospho-KIT (Tyr719) in GIST430 cells (Homo sapiens, UniProt P10721); experiment: GIST430 KIT Western Blot; assay type: cell-based; details: 4 hours, read-out: pKIT suppression by western blot analysi GIST430
[7] = molecular target: Phospho-KIT (Tyr719) in GIST48 cells (Homo sapiens, UniProt P10721); experiment: GIST48 KIT Western Blot; assay type: cell-based; details: 4 hours, read-out: pKIT suppression by western blot analysi GIST48
GIST430 cells = experiment: GIST 430 Cell Proliferation Assay; assay type: cell-based; details: Homo sapiens, resazurin, 115 hours + 5 hours
Protocol: as §3
A serial dilution of test compound was dispensed into a 384-well black clear bottom plate (Corning, Corning, N.Y.). Two thousand five-hundred cells were added per well in 50 μL complete growth medium. Plates were incubated for 115 hours at 37° C., 5% CO2, 95% humidity. At the end of the incubation period 10 μL of a 440 μM solution of resazurin (Sigma, St. Louis, Mo.) in PBS was added to each well and incubated for an additional 5 hours at 37° C., 5% CO2, 95% humidity. Plates were read on a Synergy2 reader (Biotek, Winooski, Vt.) using an excitation of 540 nm and an emission of 600 nm.

T5 sequence (P10721 544-976 T670I): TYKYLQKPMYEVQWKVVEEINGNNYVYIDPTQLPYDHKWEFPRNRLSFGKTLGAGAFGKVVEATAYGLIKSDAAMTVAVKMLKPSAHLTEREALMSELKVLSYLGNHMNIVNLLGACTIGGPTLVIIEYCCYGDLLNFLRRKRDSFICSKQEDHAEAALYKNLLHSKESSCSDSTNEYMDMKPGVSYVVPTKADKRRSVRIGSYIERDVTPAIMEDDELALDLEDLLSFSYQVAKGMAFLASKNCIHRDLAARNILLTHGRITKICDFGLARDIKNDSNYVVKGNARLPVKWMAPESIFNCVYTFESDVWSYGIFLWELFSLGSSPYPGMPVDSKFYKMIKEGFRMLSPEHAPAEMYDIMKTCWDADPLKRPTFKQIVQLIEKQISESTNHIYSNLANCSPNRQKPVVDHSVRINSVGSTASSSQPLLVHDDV
Phospho-KIT (Tyr719) in GIST430 cells, sequence (P10721 with tags, fused parts or gaps DEL560-576/V654A, form open): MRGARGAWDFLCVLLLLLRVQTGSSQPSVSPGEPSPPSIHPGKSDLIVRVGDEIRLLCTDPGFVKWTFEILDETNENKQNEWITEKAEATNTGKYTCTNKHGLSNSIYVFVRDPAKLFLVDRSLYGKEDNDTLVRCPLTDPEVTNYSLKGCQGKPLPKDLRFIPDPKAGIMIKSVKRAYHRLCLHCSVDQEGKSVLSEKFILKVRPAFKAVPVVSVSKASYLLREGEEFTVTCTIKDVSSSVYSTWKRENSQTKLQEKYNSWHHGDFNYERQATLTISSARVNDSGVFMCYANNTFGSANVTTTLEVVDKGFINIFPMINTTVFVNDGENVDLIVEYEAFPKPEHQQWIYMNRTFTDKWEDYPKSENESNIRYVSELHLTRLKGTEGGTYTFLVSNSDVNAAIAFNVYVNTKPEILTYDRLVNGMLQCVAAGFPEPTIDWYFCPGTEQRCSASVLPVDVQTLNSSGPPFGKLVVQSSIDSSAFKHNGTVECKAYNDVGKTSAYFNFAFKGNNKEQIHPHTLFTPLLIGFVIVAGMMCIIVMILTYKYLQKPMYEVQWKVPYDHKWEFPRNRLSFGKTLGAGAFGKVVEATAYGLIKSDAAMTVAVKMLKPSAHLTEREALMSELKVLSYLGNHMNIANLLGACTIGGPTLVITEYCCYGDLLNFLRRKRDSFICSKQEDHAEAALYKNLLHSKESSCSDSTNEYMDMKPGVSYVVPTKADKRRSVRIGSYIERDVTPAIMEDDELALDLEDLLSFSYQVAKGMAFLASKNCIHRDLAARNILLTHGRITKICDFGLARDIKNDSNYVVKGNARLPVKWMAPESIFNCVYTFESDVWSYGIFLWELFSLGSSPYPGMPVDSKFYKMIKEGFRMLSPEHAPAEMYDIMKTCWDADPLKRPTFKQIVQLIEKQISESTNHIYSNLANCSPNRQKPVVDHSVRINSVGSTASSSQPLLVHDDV
T1 sequence (P10721 with tags, fused parts or gaps): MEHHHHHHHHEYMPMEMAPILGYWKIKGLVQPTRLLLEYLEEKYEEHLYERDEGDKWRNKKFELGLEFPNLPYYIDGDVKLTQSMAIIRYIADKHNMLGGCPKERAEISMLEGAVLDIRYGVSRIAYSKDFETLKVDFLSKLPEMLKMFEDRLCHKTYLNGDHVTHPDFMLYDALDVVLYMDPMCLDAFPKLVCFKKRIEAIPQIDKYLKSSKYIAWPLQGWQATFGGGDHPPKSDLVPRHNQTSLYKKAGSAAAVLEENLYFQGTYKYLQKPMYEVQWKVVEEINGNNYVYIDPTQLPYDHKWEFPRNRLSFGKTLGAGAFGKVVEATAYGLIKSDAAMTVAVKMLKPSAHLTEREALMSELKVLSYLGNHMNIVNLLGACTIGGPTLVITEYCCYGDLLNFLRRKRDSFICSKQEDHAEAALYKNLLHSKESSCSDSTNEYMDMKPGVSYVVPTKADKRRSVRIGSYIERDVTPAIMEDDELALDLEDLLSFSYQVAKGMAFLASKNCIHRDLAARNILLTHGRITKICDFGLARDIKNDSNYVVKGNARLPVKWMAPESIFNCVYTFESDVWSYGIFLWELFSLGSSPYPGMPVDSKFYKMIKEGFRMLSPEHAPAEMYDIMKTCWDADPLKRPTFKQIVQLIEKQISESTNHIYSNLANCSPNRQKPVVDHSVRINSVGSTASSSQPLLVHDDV
T3 sequence (P10721 544-976 D816H): as the sequence (P10721 544-976 T670I) above, with I127T, D273H counted along it
Phospho-KIT (Tyr719) in GIST48 cells, sequence (P10721 whole entry V560D/D820A, form open): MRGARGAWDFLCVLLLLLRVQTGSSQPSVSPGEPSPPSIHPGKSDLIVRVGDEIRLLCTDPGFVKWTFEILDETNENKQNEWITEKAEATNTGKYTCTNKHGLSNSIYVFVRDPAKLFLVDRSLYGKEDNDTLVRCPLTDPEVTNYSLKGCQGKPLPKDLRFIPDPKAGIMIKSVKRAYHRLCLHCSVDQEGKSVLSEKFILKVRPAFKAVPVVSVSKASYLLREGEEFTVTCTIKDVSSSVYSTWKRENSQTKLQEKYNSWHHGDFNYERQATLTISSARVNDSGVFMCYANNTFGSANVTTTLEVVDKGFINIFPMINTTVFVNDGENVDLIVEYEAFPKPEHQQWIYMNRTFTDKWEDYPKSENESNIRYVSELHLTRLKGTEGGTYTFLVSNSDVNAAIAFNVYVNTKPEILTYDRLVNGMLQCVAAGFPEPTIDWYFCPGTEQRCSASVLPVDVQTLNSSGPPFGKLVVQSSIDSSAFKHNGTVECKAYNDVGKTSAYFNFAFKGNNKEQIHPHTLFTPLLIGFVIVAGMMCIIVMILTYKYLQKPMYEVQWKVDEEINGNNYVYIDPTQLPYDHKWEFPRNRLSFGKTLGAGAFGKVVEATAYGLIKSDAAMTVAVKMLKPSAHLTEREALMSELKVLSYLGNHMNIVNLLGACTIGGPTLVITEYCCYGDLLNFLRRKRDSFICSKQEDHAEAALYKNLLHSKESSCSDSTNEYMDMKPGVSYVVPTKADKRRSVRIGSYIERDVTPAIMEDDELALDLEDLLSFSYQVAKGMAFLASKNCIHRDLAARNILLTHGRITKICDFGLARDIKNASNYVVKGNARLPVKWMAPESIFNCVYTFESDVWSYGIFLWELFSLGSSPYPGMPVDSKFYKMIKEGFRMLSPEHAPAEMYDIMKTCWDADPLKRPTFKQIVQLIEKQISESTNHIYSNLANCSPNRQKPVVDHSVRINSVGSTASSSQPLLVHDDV
T2 sequence (P10721 544-976 V654A): as the sequence (P10721 544-976 T670I) above, with V111A, I127T counted along it
T4 sequence (P10721 544-976 D816V): as the sequence (P10721 544-976 T670I) above, with I127T, D273V counted along it

**Q.** With `CCn1c(=O)c(-c2cc(NC(=O)Nc3ccccc3)c(F)cc2Cl)cc2cnc(NCCCN3CCOCC3)cc21` [Example 92, 1-(4-chloro-5-(1-ethyl-7-((3-morpholinopropyl)amino)-2-oxo-1,2-dihydro-1,6-naphthyridin-3-yl)-2-fluorophenyl)-3-phenylurea] as the molecule, how does the IC50 [1] read?
**A.** Its IC50 is under 10 nM.

**Q.** And the IC50 [2]?
**A.** The IC50 was under 10 nM.

**Q.** And the IC50 [3]?
**A.** Its IC50 is 10 to 100 nM.

**Q.** And the IC50 [4]?
**A.** The IC50 was 10 to 100 nM.

**Q.** And the IC50 [5]?
**A.** The IC50 was 10 to 100 nM.

**Q.** And the IC50 (GIST T1 cells)?
**A.** Its IC50 is at most 10 nM.

**Q.** With `CCn1c(=O)c(-c2cc(NC(=O)Nc3ccccc3)c(F)cc2Cl)cc2cnc(NC)cc21` [Example 3, 1-(4-chloro-5-(1-ethyl-7-(methylamino)-2-oxo-1,2-dihydro-1,6-naphthyridin-3-yl)-2-fluorophenyl)-3-phenylurea] as the molecule, how does the IC50 [6] read?
**A.** The IC50 was 10 to 100 nM.

**Q.** What about the IC50 [7] of the same molecule?
**A.** Its IC50 is 100 to 1000 nM.

**Q.** What about the IC50 (GIST430 cells) of the same molecule?
**A.** Its IC50 is 10 to 100 nM.
